In brackets after ≈: the same amount, converted by molar mass.
Experiments:
Focal adhesion kinase 1 = Focal adhesion kinase 1 (Homo sapiens, UniProt Q05397); experiment: Inhibition of FAK (unknown origin) using Fluorescein-Poly GAT as substrate incubated for 30 mins and measured after 60 mins by Lanthascreen assay
[1] = biological target: Receptor-type tyrosine-protein kinase FLT3 (Homo sapiens) (UniProt P36888); experiment: Inhibition of FLT3 (unknown origin) at 1 uM incubated for 40 mins in presence of Mg/ATP mix relative to control
Homo sapiens = species: Homo sapiens; experiment: Inhibition of MEK (unknown origin) at 1 uM incubated for 40 mins in presence of Mg/ATP mix relative to control
[2] = Metabolic stability in human liver microsomes assessed as parent compound remaining incubated for 120 mins in presence of NADPH by LC-MS/MS analysis; assay type: ADME, Microsome; conditions: read-out: Stability
[3] = Metabolic stability in human liver microsomes assessed as half-life incubated for 120 mins in presence of NADPH by LC-MS/MS analysis; assay type: ADME, Microsome
[4] = Metabolic stability in human liver microsomes assessed as intrinsic clearance incubated for 120 mins in presence of NADPH by LC-MS/MS analysis; assay type: ADME, Microsome; conditions: read-out: CLH
[5] = Aqueous solubility of compound; assay type: physicochemical; conditions: aqueous (not further specified)

Focal adhesion kinase 1, sequence (Q05397 whole entry): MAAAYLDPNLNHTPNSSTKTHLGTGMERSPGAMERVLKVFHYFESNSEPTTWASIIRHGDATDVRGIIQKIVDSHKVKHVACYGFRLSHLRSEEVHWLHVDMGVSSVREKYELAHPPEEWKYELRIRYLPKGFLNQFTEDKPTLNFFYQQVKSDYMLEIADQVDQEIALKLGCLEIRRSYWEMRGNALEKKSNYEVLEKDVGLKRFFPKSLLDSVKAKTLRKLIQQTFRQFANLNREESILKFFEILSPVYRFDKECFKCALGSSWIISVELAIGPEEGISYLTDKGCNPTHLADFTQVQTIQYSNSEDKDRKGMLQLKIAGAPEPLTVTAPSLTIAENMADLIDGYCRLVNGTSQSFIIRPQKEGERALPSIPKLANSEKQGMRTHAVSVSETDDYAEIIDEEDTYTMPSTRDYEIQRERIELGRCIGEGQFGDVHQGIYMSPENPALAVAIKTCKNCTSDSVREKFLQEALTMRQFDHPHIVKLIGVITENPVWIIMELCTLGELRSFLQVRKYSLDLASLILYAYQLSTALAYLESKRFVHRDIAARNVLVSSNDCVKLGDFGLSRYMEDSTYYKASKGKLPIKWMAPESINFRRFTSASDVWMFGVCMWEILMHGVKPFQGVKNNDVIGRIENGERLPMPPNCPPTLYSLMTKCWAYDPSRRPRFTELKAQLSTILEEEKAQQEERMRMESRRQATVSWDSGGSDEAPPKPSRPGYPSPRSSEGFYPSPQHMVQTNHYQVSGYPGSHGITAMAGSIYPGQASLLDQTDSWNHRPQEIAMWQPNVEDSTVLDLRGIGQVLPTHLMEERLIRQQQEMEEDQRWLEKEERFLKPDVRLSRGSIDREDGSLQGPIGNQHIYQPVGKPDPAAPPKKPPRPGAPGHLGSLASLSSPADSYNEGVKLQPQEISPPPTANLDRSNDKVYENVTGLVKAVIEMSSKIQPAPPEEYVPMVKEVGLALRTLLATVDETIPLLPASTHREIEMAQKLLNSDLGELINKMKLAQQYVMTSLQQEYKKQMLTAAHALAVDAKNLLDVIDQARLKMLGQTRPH
Receptor-type tyrosine-protein kinase FLT3 (Homo sapiens), sequence (P36888 whole entry): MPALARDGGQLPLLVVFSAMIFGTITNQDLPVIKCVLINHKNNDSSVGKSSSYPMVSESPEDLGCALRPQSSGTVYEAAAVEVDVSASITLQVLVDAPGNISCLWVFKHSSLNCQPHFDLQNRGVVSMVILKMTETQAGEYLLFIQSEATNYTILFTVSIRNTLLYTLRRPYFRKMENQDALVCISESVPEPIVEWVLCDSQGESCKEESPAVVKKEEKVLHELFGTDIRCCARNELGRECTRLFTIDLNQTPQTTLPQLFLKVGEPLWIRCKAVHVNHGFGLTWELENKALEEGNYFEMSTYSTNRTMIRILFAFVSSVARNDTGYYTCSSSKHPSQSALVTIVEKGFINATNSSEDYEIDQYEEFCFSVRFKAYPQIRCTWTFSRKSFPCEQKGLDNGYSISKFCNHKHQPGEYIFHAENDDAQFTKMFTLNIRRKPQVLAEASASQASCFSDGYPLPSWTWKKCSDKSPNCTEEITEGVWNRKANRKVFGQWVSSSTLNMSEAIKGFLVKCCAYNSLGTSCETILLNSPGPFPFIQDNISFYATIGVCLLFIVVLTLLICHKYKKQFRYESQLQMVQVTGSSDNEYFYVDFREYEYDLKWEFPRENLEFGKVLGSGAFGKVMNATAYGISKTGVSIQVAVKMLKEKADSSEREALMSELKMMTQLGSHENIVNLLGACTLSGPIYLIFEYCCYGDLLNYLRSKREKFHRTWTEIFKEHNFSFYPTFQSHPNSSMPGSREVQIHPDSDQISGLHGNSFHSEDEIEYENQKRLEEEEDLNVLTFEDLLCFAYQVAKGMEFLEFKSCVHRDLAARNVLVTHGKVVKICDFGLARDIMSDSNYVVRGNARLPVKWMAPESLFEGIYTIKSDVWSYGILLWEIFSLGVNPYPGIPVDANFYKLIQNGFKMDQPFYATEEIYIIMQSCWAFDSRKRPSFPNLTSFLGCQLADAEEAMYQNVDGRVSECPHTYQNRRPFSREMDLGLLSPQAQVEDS

SMILES | IC50 (Focal adhesion kinase 1) [nM] | also measured
COc1cc(N2CCOCC2)ccc1Nc1nc(Oc2cccc3c2C(=O)CC3)c2cc[nH]c2n1 | 1140 | 
COc1cc(N2CCC(N3CCN(C)CC3)CC2)ccc1Nc1nc(-n2ccc3ccccc32)c2cc[nH]c2n1 | 144 | 
COc1cc(N2CCOCC2)ccc1Nc1nc(Oc2cccc3c2C(=O)CC3)c2[nH]ccc2n1 | > 1000 | 
CN1CCN(c2ccc(Nc3nc(Oc4cccc5c4C(=O)CC5)c4cc[nH]c4n3)cc2C#N)CC1 | 20.6 | 
O=C1CCc2cccc(Oc3nc(Nc4ccc(N5CCOCC5)cc4)nc4ccsc34)c21 | 245 | 
COc1cc(N2CCOCC2)ccc1Nc1nc(Oc2cccc3c2C(=O)CC3)c2sccc2n1 | 113 | 
COc1cc(N2CCN(C)CC2)ccc1Nc1nc(Oc2cccc3c2C(=O)CC3)c2sccc2n1 | 41.4 | 
O=C1CCc2cccc(Oc3nc(Nc4ccc(N5CCOCC5)cc4)nc4ccccc34)c21 | > 1000 | 
COc1cc(N2CCN(C)CC2)ccc1Nc1nc(Oc2cccc3c2C(=O)CC3)c2ccsc2n1 | > 1000 | 
COc1cc(N2CCOCC2)ccc1Nc1nc(Oc2cccc3c2C(=O)CC3)c2ccsc2n1 | > 1000 | 
COc1cc(N2CCC(N3CCN(C)CC3)CC2)ccc1Nc1nc(-c2cnn(C)c2)c2cc[nH]c2n1 | 173 | 
COc1cc(N2CCOCC2)ccc1Nc1nc(Oc2cccc3c2C(=O)CC3)c2ccccc2n1 | 654 | 
CNC(=O)c1ccc(Nc2ncc(C(F)(F)F)c(NCc3nccnc3N(C)S(C)(=O)=O)n2)cc1 |  | inhibition [1]: > 90%; inhibition (Homo sapiens): > 90%
COc1cc(N2CCN(C)CC2)ccc1Nc1nc(-c2cnn(C)c2)c2cc[nH]c2n1 | 330 | 
O=C1CCc2cccc(Oc3nc(Nc4ccc(N5CCOCC5)cc4)nc4[nH]ccc34)c21 | 12.2 | 
COc1nc(N2CCN(C)CC2)ccc1Nc1nc(Oc2cccc3c2C(=O)CC3)c2cc[nH]c2n1 | 9.05 | 
COc1cc(N2C[C@@H]3C[C@H]2CO3)ccc1Nc1nc(Oc2cccc3c2C(=O)CC3)c2cc[nH]c2n1 | 9.6 | 
COc1cc(N2CCC(N3CCN(C)CC3)CC2)ccc1Nc1nc(-n2cnc3ccccc32)c2cc[nH]c2n1 | 27.6 | 
COc1cc(N2CCN(C)CC2)ccc1Nc1nc(Oc2cccc3c2C(=O)CC3)c2cc[nH]c2n1 | 3.86 | remaining at 2 h [2]: 62.7%; half-life [3]: > 2 h; CLint scaled [4]: 52 mL/min/kg; solubility [5]: 13.6 µg/mL (≈ 28.1 µM)
O=C1NCc2cc(Nc3nc(Oc4cccc5c4C(=O)CC5)c4cc[nH]c4n3)ccc21 | 20.6 | 
O=C1CCc2cccc(Oc3nc(Nc4ccc(N5CCOCC5)cc4)nc4cc[nH]c34)c21 | > 1000 | 
CN1CCN(c2ccc(Nc3nc(Oc4cccc5c4C(=O)CC5)c4ccccc4n3)cc2)CC1 | > 1000 | 
COc1cc(N2CCN(C)CC2)ccc1Nc1nc(Oc2ccc(C)c3c2C(=O)CC3)c2cc[nH]c2n1 | 2.04 | remaining at 2 h [2]: 42.2%; half-life [3]: 1.65 h; CLint scaled [4]: 8.8 mL/min/kg; solubility [5]: 7.9 µg/mL (≈ 15.8 µM)
COc1cc(N2CCN(C)CC2)ccc1Nc1nc(-n2ccc3ccccc32)c2cc[nH]c2n1 | 166 | 
COc1cc(N2CCC(N3CCN(C)CC3)CC2)ccc1Nc1nc(Oc2cccc3c2C(=O)CC3)c2sccc2n1 | 27.4 | 

Reference: ChEMBL document CHEMBL5154654, “Design, synthesis and biological evaluation of 7-((7H-pyrrolo[2,3-d]pyrimidin-4-yl)oxy)-2,3-dihydro-1H-inden-1-one derivatives as potent FAK inhibitors for the treatment of ovarian cancer” (Eur J Med Chem, 2022)
